Holding throughout (experiment): cell-based
Assay [1] concerns the target rNav1.7 (Rattus norvegicus, UniProt O08562). To be noted: for IC50: PatchXpress, tonic block, rat Nav1.7, read-out: PX rNav1.7 Tonic IC50; for rNav1.7/hNav1.7: ratio of PX tonic IC50, rat Nav1.7 over human Nav1.7.
The target of assay [2] is mNav1.7 (Mus musculus, UniProt Q62205). Particulars: for IC50: PatchXpress, tonic block, mouse Nav1.7, read-out: PX mNav1.7 Tonic IC50; for mNav1.7/hNav1.7: ratio of PX tonic IC50, mouse Nav1.7 over human Nav1.7.
In assay [3] the target is mouse Nav1.4 (Mus musculus, UniProt Q9ER60). Particulars: for IC50: PatchXpress, tonic block, mouse Nav1.4, read-out: PX mNav1.4 Tonic IC50; for mNav1.4/mNav1.7: ratio of PX tonic IC50, mouse Nav1.4 over mouse Nav1.7.

The text below walks through data of patent US10344060B2 (priority 2013, dated 2019).

What is called IC50 is the concentration that inhibits the measured activity by half.

Molecules are shown by their SMILES.

Sequence of mNav1.7 (Q62205 whole entry): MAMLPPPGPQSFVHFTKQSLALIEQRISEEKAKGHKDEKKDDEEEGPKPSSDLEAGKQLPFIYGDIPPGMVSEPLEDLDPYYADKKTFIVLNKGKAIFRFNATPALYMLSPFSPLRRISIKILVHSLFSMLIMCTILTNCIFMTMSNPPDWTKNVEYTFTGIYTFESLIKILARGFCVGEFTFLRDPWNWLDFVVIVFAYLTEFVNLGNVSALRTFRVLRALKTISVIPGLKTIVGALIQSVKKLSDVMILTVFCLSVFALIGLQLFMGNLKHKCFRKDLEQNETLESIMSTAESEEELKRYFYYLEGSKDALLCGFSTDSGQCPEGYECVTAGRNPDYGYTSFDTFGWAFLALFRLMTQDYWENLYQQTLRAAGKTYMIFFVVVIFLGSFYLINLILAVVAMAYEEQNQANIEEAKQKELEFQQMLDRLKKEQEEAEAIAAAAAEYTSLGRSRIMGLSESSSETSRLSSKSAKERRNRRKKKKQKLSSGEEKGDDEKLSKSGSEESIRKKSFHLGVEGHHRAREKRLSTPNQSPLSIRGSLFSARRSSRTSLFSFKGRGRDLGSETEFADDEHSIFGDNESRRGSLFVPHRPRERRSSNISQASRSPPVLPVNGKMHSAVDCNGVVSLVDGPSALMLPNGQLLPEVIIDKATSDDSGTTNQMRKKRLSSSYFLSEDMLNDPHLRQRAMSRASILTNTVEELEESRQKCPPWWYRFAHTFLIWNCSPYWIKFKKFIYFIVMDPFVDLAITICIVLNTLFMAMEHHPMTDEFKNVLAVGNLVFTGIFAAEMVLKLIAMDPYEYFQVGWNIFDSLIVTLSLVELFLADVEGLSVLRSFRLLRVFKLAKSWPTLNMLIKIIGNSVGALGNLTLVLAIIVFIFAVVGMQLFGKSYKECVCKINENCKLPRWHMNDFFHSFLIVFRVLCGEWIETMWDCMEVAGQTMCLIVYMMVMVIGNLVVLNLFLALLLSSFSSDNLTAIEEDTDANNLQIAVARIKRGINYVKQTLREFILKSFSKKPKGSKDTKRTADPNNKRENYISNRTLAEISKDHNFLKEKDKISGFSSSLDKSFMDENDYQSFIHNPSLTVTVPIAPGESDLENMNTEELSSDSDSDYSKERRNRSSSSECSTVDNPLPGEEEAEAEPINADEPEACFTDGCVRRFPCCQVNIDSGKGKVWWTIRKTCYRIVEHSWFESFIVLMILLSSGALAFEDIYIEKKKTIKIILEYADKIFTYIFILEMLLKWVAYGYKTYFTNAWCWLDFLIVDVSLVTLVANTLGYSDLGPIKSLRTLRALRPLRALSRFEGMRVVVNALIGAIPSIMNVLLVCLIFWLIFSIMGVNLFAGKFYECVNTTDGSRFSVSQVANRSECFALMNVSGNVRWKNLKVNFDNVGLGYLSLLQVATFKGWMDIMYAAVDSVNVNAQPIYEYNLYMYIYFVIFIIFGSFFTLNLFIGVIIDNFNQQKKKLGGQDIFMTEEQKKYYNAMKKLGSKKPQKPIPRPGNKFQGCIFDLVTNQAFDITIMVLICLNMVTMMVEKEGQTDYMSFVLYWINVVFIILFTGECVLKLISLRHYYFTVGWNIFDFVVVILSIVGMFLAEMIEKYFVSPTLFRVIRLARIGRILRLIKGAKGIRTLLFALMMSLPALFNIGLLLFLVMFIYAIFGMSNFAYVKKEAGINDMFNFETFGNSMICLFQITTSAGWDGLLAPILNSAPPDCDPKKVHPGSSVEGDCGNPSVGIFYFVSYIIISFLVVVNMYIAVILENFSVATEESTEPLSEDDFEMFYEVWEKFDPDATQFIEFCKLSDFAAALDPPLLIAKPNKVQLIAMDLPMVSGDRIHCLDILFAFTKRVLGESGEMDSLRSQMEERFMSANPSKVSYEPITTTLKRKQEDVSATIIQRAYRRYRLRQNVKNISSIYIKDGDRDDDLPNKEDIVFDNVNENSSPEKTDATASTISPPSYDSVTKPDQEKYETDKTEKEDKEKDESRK
Sequence of mouse Nav1.4 (Q9ER60 whole entry): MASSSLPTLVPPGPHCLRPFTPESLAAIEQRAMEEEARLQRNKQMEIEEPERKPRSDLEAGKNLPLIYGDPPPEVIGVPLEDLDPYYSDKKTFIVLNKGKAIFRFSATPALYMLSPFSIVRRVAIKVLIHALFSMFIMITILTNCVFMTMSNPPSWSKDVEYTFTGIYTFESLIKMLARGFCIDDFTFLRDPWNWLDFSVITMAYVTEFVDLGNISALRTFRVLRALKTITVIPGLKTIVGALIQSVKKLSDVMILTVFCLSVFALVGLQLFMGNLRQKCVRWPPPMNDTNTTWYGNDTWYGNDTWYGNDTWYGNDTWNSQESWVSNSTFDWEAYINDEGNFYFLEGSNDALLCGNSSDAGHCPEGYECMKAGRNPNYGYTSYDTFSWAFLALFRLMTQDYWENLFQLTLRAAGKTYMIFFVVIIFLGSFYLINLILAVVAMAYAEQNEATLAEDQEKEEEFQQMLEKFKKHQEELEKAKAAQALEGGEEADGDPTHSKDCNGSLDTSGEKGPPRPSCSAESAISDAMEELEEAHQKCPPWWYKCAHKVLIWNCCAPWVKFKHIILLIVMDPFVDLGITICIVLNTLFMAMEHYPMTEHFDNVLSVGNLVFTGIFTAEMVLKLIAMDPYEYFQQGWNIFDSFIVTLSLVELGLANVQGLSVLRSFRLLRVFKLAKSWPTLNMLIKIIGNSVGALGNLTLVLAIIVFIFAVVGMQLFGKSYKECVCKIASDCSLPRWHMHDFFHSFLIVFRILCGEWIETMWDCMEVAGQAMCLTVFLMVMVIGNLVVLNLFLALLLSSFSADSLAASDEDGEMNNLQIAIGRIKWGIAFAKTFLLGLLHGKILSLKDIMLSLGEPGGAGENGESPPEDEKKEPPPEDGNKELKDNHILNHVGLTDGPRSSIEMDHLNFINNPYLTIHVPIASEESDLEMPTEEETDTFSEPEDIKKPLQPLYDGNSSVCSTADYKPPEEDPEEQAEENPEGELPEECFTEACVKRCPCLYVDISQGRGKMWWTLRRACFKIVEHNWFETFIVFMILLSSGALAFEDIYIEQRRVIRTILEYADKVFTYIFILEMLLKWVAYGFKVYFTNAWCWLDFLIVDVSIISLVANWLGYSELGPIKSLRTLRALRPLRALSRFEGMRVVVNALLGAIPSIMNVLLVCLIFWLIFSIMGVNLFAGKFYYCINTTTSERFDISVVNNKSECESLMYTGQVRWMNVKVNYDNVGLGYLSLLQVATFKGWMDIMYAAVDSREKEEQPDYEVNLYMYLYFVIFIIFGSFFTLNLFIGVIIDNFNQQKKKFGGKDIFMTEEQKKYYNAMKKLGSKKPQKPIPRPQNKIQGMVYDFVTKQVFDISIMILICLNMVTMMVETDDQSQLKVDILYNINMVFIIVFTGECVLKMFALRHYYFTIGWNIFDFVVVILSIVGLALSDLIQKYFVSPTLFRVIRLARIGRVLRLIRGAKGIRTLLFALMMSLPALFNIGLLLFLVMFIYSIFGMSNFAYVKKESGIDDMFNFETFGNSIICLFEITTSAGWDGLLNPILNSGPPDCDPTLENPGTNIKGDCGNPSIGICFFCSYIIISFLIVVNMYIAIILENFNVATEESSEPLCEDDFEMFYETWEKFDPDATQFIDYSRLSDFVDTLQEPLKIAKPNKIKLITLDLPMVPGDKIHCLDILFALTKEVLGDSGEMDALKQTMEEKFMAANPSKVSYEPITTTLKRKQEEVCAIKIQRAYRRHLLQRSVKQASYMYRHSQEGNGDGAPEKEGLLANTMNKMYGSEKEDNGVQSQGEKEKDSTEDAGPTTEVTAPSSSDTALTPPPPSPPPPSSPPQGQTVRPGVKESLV

In the case of `C#CC[C@H](N)C(=O)N[C@@H](Cc1ccc(O)cc1)C(=O)N[C@H]1CSSC[C@@H]2NC(=O)[C@@H]3CSSC[C@@H](C(=O)N[C@@H](CCCNC(=N)N)C(=O)N[C@@H](CCCCN)C(=O)N[C@@H](CCC(=O)O)C(=O)N[C@H](C(N)=O)[C@@H](C)CC)NC(=O)[C@H](Cc4c[nH]c5ccccc45)NC(=O)[C@H](CC(C)C)NC(=O)[C@H](CCCCN)NC(=O)[C@H](CSSC[C@H](NC(=O)[C@H]([C@@H](C)O)NC(=O)[C@H](Cc4c[nH]c5ccccc45)NC(=O)[C@H](CCCC)NC(=O)[C@H](Cc4c[nH]c5ccccc45)NC(=O)[C@H](CCCCN)NC(=O)[C@H](CCC(N)=O)NC1=O)C(=O)N[C@@H](CC(=O)O)C(=O)N[C@@H](CO)C(=O)N[C@@H](CCCCN)C(=O)N[C@@H](CCCNC(=N)N)C(=O)N[C@@H](C)C(=O)N3)NC(=O)[C@H](CCCNC(=N)N)NC(=O)[C@H](CC(C)C)NC(=O)CNC(=O)[C@H](CCC(=O)O)NC2=O` [Pra-[Nle6, Glu28]JzTx-V(1-29)], in assay [1], the IC50 was determined as 0.641 nM and the rNav1.7/hNav1.7 is reported as 1.17. Also, in assay [2], the IC50 was 9.86 nM and the mNav1.7/hNav1.7 turned out to be 17.99. In assay [3], the IC50 stood at 119 nM and the mNav1.4/mNav1.7 is listed as 12.
Regarding `C#CC[C@H](N)C(=O)N[C@@H](Cc1ccc(O)cc1)C(=O)N[C@H]1CSSC[C@@H]2NC(=O)[C@@H]3CSSC[C@@H](C(=O)N[C@@H](CCCNC(=N)N)C(=O)N[C@@H](CCCCN)C(=O)N[C@H](C(=O)N[C@H](C(N)=O)[C@@H](C)CC)[C@@H](C)CC)NC(=O)[C@H](Cc4c[nH]c5ccccc45)NC(=O)[C@H](CC(C)C)NC(=O)[C@H](CCCCN)NC(=O)[C@H](CSSC[C@H](NC(=O)[C@H]([C@@H](C)O)NC(=O)[C@H](Cc4c[nH]c5ccccc45)NC(=O)[C@H](CCCC)NC(=O)[C@H](Cc4c[nH]c5ccccc45)NC(=O)[C@H](CCCCN)NC(=O)[C@H](CCC(N)=O)NC1=O)C(=O)N[C@@H](CC(=O)O)C(=O)N[C@@H](CO)C(=O)N[C@@H](CCC(=O)O)C(=O)N[C@@H](CCCNC(=N)N)C(=O)N[C@@H](C)C(=O)N3)NC(=O)[C@H](CCCNC(=N)N)NC(=O)[C@H](CC(C)C)NC(=O)CNC(=O)[C@H](CCCCN)NC2=O` [Pra-[Nle6; Glu12; Lys17]JzTx-V(1-29)], in assay [1], the IC50 was 0.653 nM and the rNav1.7/hNav1.7 is recorded as 0.35. In assay [2], the concentration for half-maximal inhibition (IC50) turned out to be 1.27 nM and the mNav1.7/hNav1.7 amounted to 0.68. Besides, in assay [3], the IC50 amounted to 2.77 nM and the mNav1.4/mNav1.7 stood at 2.2.
On to `C#CC[C@H](N)C(=O)N[C@@H](Cc1ccc(O)cc1)C(=O)N[C@H]1CSSC[C@@H]2NC(=O)[C@@H]3CSSC[C@@H](C(=O)N[C@@H](CCCNC(=N)N)C(=O)N[C@@H](CCCCN)C(=O)N[C@@H](CCC(=O)O)C(=O)N[C@H](C(N)=O)[C@@H](C)CC)NC(=O)[C@H](Cc4c[nH]c5ccccc45)NC(=O)[C@H](CC(C)C)NC(=O)[C@H](CCCCN)NC(=O)[C@H](CSSC[C@H](NC(=O)[C@H]([C@@H](C)O)NC(=O)[C@H](Cc4c[nH]c5ccccc45)NC(=O)[C@H](CCCC)NC(=O)[C@H](Cc4c[nH]c5ccccc45)NC(=O)[C@H](CCCCN)NC(=O)[C@H](CCC(N)=O)NC1=O)C(=O)N[C@@H](CC(=O)O)C(=O)N[C@@H](CO)C(=O)N[C@@H](CCC(=O)O)C(=O)N[C@@H](CCCNC(=N)N)C(=O)N[C@@H](C)C(=O)N3)NC(=O)[C@H](CCCNC(=N)N)NC(=O)[C@H](CC(C)C)NC(=O)CNC(=O)[C@H](CCCCN)NC2=O` [Pra-[Nle6; Glu12, 28; Lys17]JzTx-V(1-29)], for which, in assay [1], the IC50 amounted to 2.01 nM and the rNav1.7/hNav1.7 came out at 0.23. Also, in assay [2], the IC50 came to 4.4 nM and the mNav1.7/hNav1.7 amounted to 0.50. Besides, in assay [3], the IC50 stood at 63 nM and the mNav1.4/mNav1.7 is 14.
With `C#CC[C@H](N)C(=O)NCCCC[C@@H]1NC(=O)[C@H](CCCNC(=N)N)NC(=O)[C@H](CCCCN)NC(=O)[C@H](CO)NC(=O)[C@H](CC(=O)O)NC(=O)[C@@H]2CSSC[C@@H]3NC(=O)[C@H](CCCNC(=N)N)NC(=O)[C@H](CC(C)C)NC(=O)CNC(=O)[C@H](CCC(=O)O)NC(=O)[C@H](CSSC[C@H](NC(=O)[C@H](Cc4ccc(O)cc4)NC(=O)[C@@H](N)CC#N)C(=O)N[C@@H](CCC(N)=O)C(=O)N[C@@H](CCCCN)C(=O)N[C@@H](Cc4c[nH]c5ccccc45)C(=O)N[C@@H](CCCC)C(=O)N[C@@H](Cc4c[nH]c5ccccc45)C(=O)N[C@@H]([C@@H](C)O)C(=O)N2)NC(=O)[C@H](CSSC[C@@H](C(=O)N[C@@H](CCCNC(=N)N)C(=O)N[C@@H](CCCCN)C(=O)N[C@@H](CCC(=O)O)C(=O)N[C@H](C(N)=O)[C@@H](C)CC)NC(=O)[C@H](Cc2c[nH]c4ccccc24)NC(=O)[C@H](CC(C)C)NC(=O)[C@H](CCCCN)NC3=O)NC1=O`, in assay [1], the IC50 amounted to 2.73 nM and the rNav1.7/hNav1.7 was determined as 1.71. Moreover, in assay [2], the IC50 was found to be 9.79 nM and the mNav1.7/hNav1.7 came out at 6.15. Besides, in assay [3], the IC50 worked out at 62.7 nM and the mNav1.4/mNav1.7 came out at 6.4.
Consider `C#CC[C@@H]1NC(=O)[C@@H]2CSSC[C@H](NC(=O)[C@H](Cc3ccc(O)cc3)NC(=O)[C@@H](N)CC#N)C(=O)N[C@@H](CCC(N)=O)C(=O)N[C@@H](CCCCN)C(=O)N[C@@H](Cc3c[nH]c4ccccc34)C(=O)N[C@@H](CCCC)C(=O)N[C@@H](Cc3c[nH]c4ccccc34)C(=O)N[C@@H]([C@@H](C)O)C(=O)N[C@H]3CSSC[C@H](NC(=O)[C@H](CCCNC(=N)N)NC(=O)[C@H](CC(C)C)NC(=O)CNC1=O)C(=O)N[C@@H](CCCCN)C(=O)N[C@@H](CC(C)C)C(=O)N[C@@H](Cc1c[nH]c4ccccc14)C(=O)N[C@H](C(=O)N[C@@H](CCCNC(=N)N)C(=O)N[C@@H](CCCCN)C(=O)N[C@@H](CCC(=O)O)C(=O)N[C@H](C(N)=O)[C@@H](C)CC)CSSC[C@H](NC(=O)[C@H](C)NC(=O)[C@H](CCCNC(=N)N)NC(=O)[C@H](CCCCN)NC(=O)[C@H](CO)NC(=O)[C@H](CC(=O)O)NC3=O)C(=O)N2` [CyA-[Nle6, Pra17, Glu28]JzTx-V(1-29)], for which the half-maximal inhibitory concentration (IC50) turned out to be 1.41 nM in assay [1], 4.8 nM in assay [2] and 32.2 nM in assay [3].
In the case of `C#CC[C@H](N)C(=O)N[C@@H](Cc1ccc(O)cc1)C(=O)N[C@H]1CSSC[C@@H]2NC(=O)[C@@H]3CSSC[C@@H](C(=O)N[C@@H](CCCNC(=N)N)C(=O)N[C@@H](CCCCN)C(=O)N[C@@H](CCC(=O)O)C(=O)N[C@H](C(N)=O)[C@@H](C)CC)NC(=O)[C@H](Cc4c[nH]c5ccccc45)NC(=O)[C@H](CC(C)C)NC(=O)[C@H](CCCCN)NC(=O)[C@H](CSSC[C@H](NC(=O)[C@H]([C@@H](C)O)NC(=O)[C@H](Cc4c[nH]c5ccccc45)NC(=O)[C@H](CCCC)NC(=O)[C@H](Cc4c[nH]c5ccccc45)NC(=O)[C@H](CCCCN)NC(=O)[C@H](CCC(N)=O)NC1=O)C(=O)N[C@@H](CC(=O)O)C(=O)N[C@@H](CCC(=O)O)C(=O)N[C@@H](CCCCN)C(=O)N[C@@H](CCCNC(=N)N)C(=O)N[C@@H](C)C(=O)N3)NC(=O)[C@H](CCCNC(=N)N)NC(=O)[C@H](CC(C)C)NC(=O)CNC(=O)[C@H](CCC(=O)O)NC2=O` [Pra-[Nle6; Glu11, 28]JzTx-V(1-29)], in assay [1], the rNav1.7/hNav1.7 came out at 0.95. The mNav1.7/hNav1.7 in assay [2] is 10.57. Also, the mNav1.4/mNav1.7 in assay [3] was 34.
On to `C#CC[C@H](N)C(=O)N[C@@H](Cc1ccc(O)cc1)C(=O)N[C@H]1CSSC[C@@H]2NC(=O)[C@@H]3CSSC[C@@H](C(=O)N[C@@H](CCCNC(=N)N)C(=O)N[C@@H](CCCCN)C(=O)N[C@H](C(=O)N[C@H](C(N)=O)[C@@H](C)CC)[C@@H](C)CC)NC(=O)[C@H](Cc4c[nH]c5ccccc45)NC(=O)[C@H](CC(C)C)NC(=O)[C@H](CCCCN)NC(=O)[C@H](CSSC[C@H](NC(=O)[C@H]([C@@H](C)O)NC(=O)[C@H](Cc4c[nH]c5ccccc45)NC(=O)[C@H](CCCC)NC(=O)[C@H](Cc4c[nH]c5ccccc45)NC(=O)[C@H](CCCCN)NC(=O)[C@H](CCC(N)=O)NC1=O)C(=O)N[C@@H](CC(=O)O)C(=O)N[C@@H](CO)C(=O)N[C@@H](CCC(=O)O)C(=O)N[C@@H](CCCNC(=N)N)C(=O)N[C@@H](C)C(=O)N3)NC(=O)[C@H](CCCNC(=N)N)NC(=O)[C@H](CC(C)C)NC(=O)CNC(=O)[C@H](CCC(=O)O)NC2=O` [Pra-[Nle6; Glu12]JzTx-V(1-29)], for which, in assay [1], the IC50 was determined as 0.58 nM and the rNav1.7/hNav1.7 was 0.49. Also, in assay [2], the 50% inhibitory concentration (IC50) worked out at 0.61 nM and the mNav1.7/hNav1.7 is 0.51. Also, in assay [3], the IC50 was 6.36 nM and the mNav1.4/mNav1.7 is 10.
`C#CC[C@H](N)C(=O)N[C@@H](Cc1ccc(O)cc1)C(=O)N[C@H]1CSSC[C@@H]2NC(=O)[C@@H]3CSSC[C@@H](C(=O)N[C@@H](CCCNC(=N)N)C(=O)N[C@@H](CCCCN)C(=O)N[C@@H](CCC(=O)O)C(=O)N[C@H](C(N)=O)[C@@H](C)CC)NC(=O)[C@H](Cc4c[nH]c5ccccc45)NC(=O)[C@H](CC(C)C)NC(=O)[C@H](CCCCN)NC(=O)[C@H](CSSC[C@H](NC(=O)[C@H]([C@@H](C)O)NC(=O)[C@H](Cc4c[nH]c5ccccc45)NC(=O)[C@H](CCCC)NC(=O)[C@H](Cc4c[nH]c5ccccc45)NC(=O)[C@H](CCCCN)NC(=O)[C@H](CCC(N)=O)NC1=O)C(=O)N[C@@H](CC(=O)O)C(=O)N[C@@H](CO)C(=O)N[C@@H](CCC(=O)O)C(=O)N[C@@H](CCCNC(=N)N)C(=O)N[C@@H](C)C(=O)N3)NC(=O)[C@H](CCCNC(=N)N)NC(=O)[C@H](CC(C)C)NC(=O)CNC(=O)[C@H](CCC(=O)O)NC2=O` [Pra-[Nle6; Glu12, 28]JzTx-V(1-29)]: in assay [1], the IC50 is 2.66 nM and the rNav1.7/hNav1.7 is reported as 1.54. For the same molecule, in assay [2], the IC50 was 16.2 nM and the mNav1.7/hNav1.7 is on record as 9.37. In assay [3], the IC50 was 548 nM and the mNav1.4/mNav1.7 was 34.
